The source of these data is patent US9458086B1, “Compositions and methods for adipocyte modulation” (University of South Florida (A Florida Non-Profit …, priority 2013, dated 2016).

Data set [1] deals with PKCδI. Description: Western blot of PKCδI expression in differentiating 3T3L1 cells. It counts as cell-based, mouse. As for the experimental part: (§1) Mouse 3T3-L1 preadipocytes were purchased from ZenBio™ (Research Triangle Park, N.C., USA) and passaged as preconfluent cultures in DMEM high glucose (Invitrogen, Carlsbad, Calif.) with 10% newborn calf serum (Sigma-Aldrich, St. Louis, Mo.) at 37° C. and 10% CO2. Once confluent, cells were differentiated (day 0) in DMEM high glucose with 10% fetal bovine serum (Atlas Biological, Fort Collins, Colo.), 10 μg/mL bovine insulin (Sigma), […] dexamethasone (Sigma), and 0.5 mM isobutyl-1-methylxanthine (Sigma). On day 2, media was replaced with DMEM high glucose, 10% FBS, and bovine insulin. Day 4 and afterwards, cells were cultured in DMEM high glucose plus 10% FBS.
(§2) Protein lysates were obtained from 3T3L1 cells using lysis buffer containing proteases. Protein lysates (40 μg) were separated by SDS-PAGE with 10% gels. Proteins were electrophoretically transferred to nitrocellulose membranes, blocked with Tris-buffered saline containing 0.1% Tween 20 and 5% nonfat dried milk, washed, and incubated with a polyclonal anti-PARP (Upstate Biotechnology), anti-XIAP (AnaSpec), anti-Bcl2, anti-caspase 9 (Calbiochem), anti-Bcl-x (Santa Cruz Biotechnology), and anti-PKCδ (Cell Signaling) or antibody against the hinge-region of PKCδII (Patel lab (19)). This antibody is specific for PKCδII, as it recognizes the extended hinge region, which is absent in PKCδI (24). Other antibodies used are as follows: PPARγ, Akt, pAkt 473, TNFα, Adiponectin, p-BAD (S316), p-PTEN (Cell Signaling, Boston, Mass.), β-actin A5441 (Sigma). After incubation with anti-rabbit IgG-HRP, enhanced chemiluminescence (Pierce) was used for detection. FluorChem M™ (Protein Simple) imaging system was used to capture digital chemiluminescence images and process western blots. Data was analyzed using AlphaView® software.
(In general: In western blotting, separated proteins are transferred to a membrane and probed.)

The next data set has as its system PPARγ. Description: Western blot of PPARγ (adipogenesis marker) in differentiating 3T3L1 cells. Format: cell-based, mouse. The procedure:
as §1, §2

In data set [2] the test system is 3T3L1 adipocytes. Description: Apoptosis assay, Annexin V-PI staining by flow cytometry. Format: cell-based, mouse. The procedure:
as §1
3T3L1 preadipocytes were cultured on 60 mm dishes as described above. For apoptosis assays, cells were serum-starved for 48 hours. Media were collected and cells were washed one time with HBSS and then trypsinized for 5.0 minutes. Five ml complete media was added to neutralize the trypsin. Media and washes were pooled and centrifuged at 1200 RPMS for five minutes. […] 400 μl binding buffer was added and cells were analyzed by flow cytometry within one hour Annexin V-FITC and PI fluorescence, which stains apoptotic cells, were measured using an Accuri C6 flow cytometer.
In general terms: Flow cytometry measures light scatter and fluorescence of single cells or particles in a stream.

For data set [3], the system named is PKCδII. The experiment in a line: RT-PCR of PKCδII splicing/mRNA in differentiating 3T3L1 preadipocytes. It counts as cell-based, mouse. The procedure: as §1
Total RNA was isolated from 3T3L1 cells with RNA-Bee (Tel Test Center) as recommended by the manufacturer. RNA was also obtained from adipose tissues of mice fed with or without resveratrol. 2 μg RNA was used to synthesize first-strand cDNA with an Oligo(dT) primer and Omniscript R kit (Qiagen). The following primers were used in PCR: PKCδ forward primer 5′ […] 3′ (SEQ ID NO:1); reverse primer 5′ […] 3′ (SEQ ID NO:2). These primers amplified PKCδI and PKCδII simultaneously. […] Following PCR, 5% of products were resolved on 6% PAGE gels and detected by silver staining. The PCR reaction was optimized for linear range amplification to allow for quantification of products. […]

The subject of data set [4] is cPKCs: α, βI, βII, γ; nPKCs: η, ε, θ; aPKCs: ζ, λ. The experiment in a line: Immunoblotting for other PKC family isoforms (specificity). It counts as cell-based, mouse. The note with it: SEAM treatment (200 nM). The procedure:
as §1
Protein lysates were obtained from 3T3L1 cells using lysis buffer containing proteases. Protein lysates (40 μg) were separated by SDS-PAGE with 10% gels. […] Data was analyzed using AlphaView® software.
3-hydroxystilbene was modified by Mannich coupling to add bis-diethylaminomethyl group (described in Example 1). Several synthetic stilbenoids with structural modifications to the basic resveratrol structure were evaluated. […]

The subject of a further data set is Bcl2. The experiment in a line: Western blot of Bcl2 in 3T3L1 cells. Format: cell-based, mouse. The note with it: SEAM treatment (200 nM). As for the experimental part:
as §1
(§3) Protein lysates were obtained from 3T3L1 cells using lysis buffer containing proteases. Protein lysates (40 μg) were separated by SDS-PAGE with 10% gels. Proteins were electrophoretically transferred to nitrocellulose membranes, blocked with Tris-buffered saline containing 0.1% Tween 20 and 5% nonfat dried milk, washed, and incubated with a polyclonal anti-PARP (Upstate Biotechnology), anti-XIAP (AnaSpec), anti-Bcl2, anti-caspase 9 (Calbiochem), anti-Bcl-x (Santa Cruz Biotechnology), and anti-PKCδ (Cell Signaling) or antibody against the hinge-region of PKCδII (Patel lab (19)). […] Data was analyzed using AlphaView® software.

The next data set concerns Bcl-xL. Description: Western blot of Bcl-xL in 3T3L1 cells. It counts as cell-based, mouse. To be noted: SEAM treatment (200 nM). The procedure:
as §1, §3

For the next data set, the system named is adiponectin. The experiment in a line: Western blot of adiponectin in 3T3L1 cells. To be noted: SEAM treatment, days 4 and 8. It counts as cell-based, mouse. As for the experimental part:
as §1, §3

Another data set has as its system 3T3L1 cells. Description: Cytotoxicity assay / cell viability. The note with it: 200 nM SEAM in 3T3L1 cells. Format: cell-based, mouse. The procedure: WST-1 (Roche Molecular Biochemicals, IN) was added to 3T3L1 cells (in triplicate) that are treated without or with SEAM to a final concentration of 10% (vol/vol). Cells were incubated for 2 hours at 37° C. The formazon dye produced by viable cells was quantified using a spectrophotometer set at a wavelength of 440 nm and absorbance recorded for each well (reference wavelength, 690 nm).
Immunoblotting for PPARγ and adiponectin was also performed to determine whether SEAM affected differentiation of 3T3L1 cells. […] Total apoptosis was measured by flow cytometry using Annexin V-PI staining (FIG. 8d). To determine whether SEAM was toxic to cells, cell viability was evaluated upon treatment of 200 nM SEAM in 3T3L1 cells. Cytotoxicity was measured using the […] assay. This assay measures the reducing potential of the cell using a colorimetric reaction. Viable cells reduce the […] to a colored formazan product.

Data set [5] concerns PKCδ exon 9 5′ splice site II. Description: pSPL3-PKCδ splicing minigene RT-PCR. Format: cell-based, mouse. The note with it: 200 nM SEAM, 24 hours after minigene transfection, harvested on day 2. The source says:
The pSPL3 vector was modified to remove cryptic 5′ splice sites as described in a previous publication (25). The pSPL3 vector was digested with BamHI (in the MCS) and NheI. Primers to amplify genomic PKCδ from 3T3L1 cells flanked mouse PKCδ exon 9 and were designed to include the BclI site in the forward primer (in bold type) and BcuI site in the reverse primers (in bold type). The forward primer was designed to amplify 137 bp of 3′ intronic sequence such that the product contained the branch point and 3′ splice site and the reverse primer included 284 bp 5′ intronic sequence and included the 5′ splice site II of exon 9. The primers were: forward primer 5′ […] 3′ (SEQ ID NO:6); reverse primer 5′ […] 3′ (SEQ ID NO:7). The product was verified by sequencing and ligated into the digested pSPL3 vector. The overhangs of the selected restriction enzymes can hybridize and this enabled cloning of the PCR product in the proper orientation. The resulting pSPL3-PKCδ minigene was verified by restriction digestion and sequencing.
Splicing minigenes are advantageous to study alternative splicing events without influence from endogenous factors. […] Utilization of 5′ splice site I on exon 9 gave rise to PKCδI while utilization of downstream 5′ splice site II gave rise to PKCδII. After 24 hours, the cells were treated with 200 nM SEAM. […]

The test system of data set [6] is PKCδII. Description: Western blot of PKCδII expression in differentiating 3T3L1 cells. It counts as cell-based, mouse. To be noted: for inhibition of PKCδII expression levels: 25 μM administered on day 5 (mature adipocyte). The procedure: as §1, §2
The test system of data set [7] is 3T3L1 adipocytes. The experiment in a line: Oil Red O staining for lipid accumulation. It counts as cell-based, mouse. To be noted: 25 μM on day 4, Oil Red O staining on day 8. The procedure: as §1
3T3L1 preadipocytes were washed with PBS and fixed with 10% formalin for 30 minutes. The cells were then rinsed and incubated with 60% isopropanol for 5 minutes. Oil Red O stain (0.15%, Sigma) was added and incubated for 10 minutes. Images were captured with Nixon confocal microscope.

Data set [8] concerns PKCδII. The experiment in a line: PCR of PKCδII in adipose tissue of mice fed resveratrol. Format: in vivo, mouse. To be noted: 400 mg resveratrol per kg body weight in diet, once daily. As for the experimental part:
(§4) Total RNA was obtained from mouse adipose tissues from Dr. You (University of South Florida). 8-week old male C57BL/6J (Jackson labs) were either fed a chow diet (control) or diet with added 400 mg resveratrol per kg body weight, once daily 23); n=5. Total RNA was extracted from adipose tissues from these mice. All protocols were reviewed and approved by the Institutional Animal Care and Use Committee at University of South Florida, Division of Comparative Medicine.
(§5) Total RNA was isolated from 3T3L1 cells with RNA-Bee (Tel Test Center) as recommended by the manufacturer. RNA was also obtained from adipose tissues of mice fed with or without resveratrol. 2 μg RNA was used to synthesize first-strand cDNA with an Oligo(dT) primer and Omniscript R kit (Qiagen). The following primers were used in PCR: PKCδ forward primer 5′ […] 3′ (SEQ ID NO:1); reverse primer 5′ […] 3′ (SEQ ID NO:2). These primers amplified PKCδI and PKCδII simultaneously. PKCδII-specific antisense primer (5′ […]3′) (SEQ ID NO:3). β-actin forward primer 5′ […] 3′ (SEQ ID NO:4); reverse primer 5′ […] 3′ (SEQ ID NO:5). Following PCR, 5% of products were resolved on 6% PAGE gels and detected by silver staining. The PCR reaction was optimized for linear range amplification to allow for quantification of products. Densitometric analyses of the bands were done using the Un-Scan IT™ Analysis Software (Silk Scientific).

Data set [9] has as its system PKCδI. Description: PCR of PKCδI in adipose tissue of mice fed resveratrol. Format: in vivo, mouse. To be noted: 400 mg resveratrol per kg body weight in diet, once daily. The procedure:
as §4, §5

The test system of a further data set is 3T3L1 preadipocytes. The experiment in a line: Resveratrol dose finding in differentiating 3T3L1 preadipocytes. It counts as cell-based, mouse. To be noted: doses 10 to 100 μM tested, data not shown. The procedure:
as §1
Several studies have shown its role in inhibiting adipose cell proliferation, lipid accumulation and stimulation of apoptosis and lipolysis in mature adipocytes. Further, resveratrol is shown to modulate alternative splicing of genes (29). However, its mechanisms of action and target proteins in apoptotic pathways during adipogenesis was not determined. […] Resveratrol treatment administered on day 5 (mature adipcoyte) inhibited PKCδII expression levels by 65% on day 6 and by more than 90% on day 8 (FIG. 7I a, b, c). Simultaneously, up to a 50% increase in PKCδI levels was observed on days 6 and 8.

The test system of the next data set is TNFα. To be noted: mice, 400 mg resveratrol; earlier studies (23); cited from earlier work.
The next data set deals with SIRT1. To be noted: mice, 400 mg resveratrol; earlier studies (23); cited from earlier work.

As for `CCN(CC)Cc1ccc(/C(C)=C(\C)c2ccc(CN(CC)CC)c(O)c2)cc1O` [SEAM], the PKCδI expression entry with PKCδI [1] (100 nM, data not shown) is listed as “not affected”. The PKCδI levels result in the data set with PKCδI [1] (SEAM treatment (200 nM)) was “did not affect”. Besides, in the data set on PPARγ (SEAM treatment, days 4 and 8), the “decrease of PPARγ2 compared to control” value is recorded as 5%. Further, in the data set on 3T3L1 adipocytes [2] (200 nM SEAM, Annexin V-PI staining), the apoptosis levels entry is on record as “increased compared to control”. Moreover, in the data set on PKCδII [3] (100 nM, data not shown), the “inhibition of PKCδII splicing” value worked out at 60%. In addition, the “decrease of PKCδII compared to control cells” value in the data set on PKCδII [3] (200 nM) came to 80%. Also, in [4], the “expression levels of other PKC isoforms” value is “did not affect”. In the data set on Bcl2, the “decrease of Bcl2 levels” value worked out at 40%. Also, the “decrease of BclxL levels” value in the data set on Bcl-xL was 20%. Also, in the data set with adiponectin, the “decrease of adiponectin compared to control” value is listed as 20%. Besides, the cell viability entry with 3T3L1 cells is “viable”. Also, the “utilization of 5′ splice site II” value in data set [5] is “inhibited”.
Take `Oc1ccc(C=Cc2cc(O)cc(O)c2)cc1` [resveratrol, 3,5,4′-trihydroxystilbene]: the “decrease in PKCδII expression” value in the data set on PKCδII [6] (25 μM administered on day 0 (preadipocyte)) is listed as “less than 10%”. In addition, in the data set on PKCδII [6] (read on day 6), the “inhibition of PKCδII expression levels” value was 65%. Also, the “inhibition of PKCδII expression levels” value in the data set with PKCδII [6] (read on day 8) was “more than 90%”. Also, the “increase in PKCδI levels” value in the data set on PKCδI [1] (25 μM resveratrol, days 6 and 8) is on record as no more than 50%. In the data set on PPARγ (25 μM resveratrol, day 8), the PPARγ2 levels result is on record as “inhibition of PPARγ2 levels” and the “decline of PPARγ1 levels” value turned out to be 30%. Besides, the “decline in lipid accumulation compared to control” value in the data set with 3T3L1 adipocytes [7] is “greater than 75%”. Moreover, the adipocytes undergoing apoptosis in the data set with 3T3L1 adipocytes [2] (25 μM on day 2, collected on day 8) is recorded as 70%. For the same compound, the “decrease in PKCδII expression in adipose tissue” value with PKCδII [8] came to 70%. In the data set on PKCδI [9], the “increase in PKCδI expression in adipose tissue” value turned out to be 25%. In addition, the “effect on the cells” value in the data set with 3T3L1 preadipocytes (100 μM resveratrol) is “detrimental to the cells”. This compound yielded an optimal dose in the data set on 3T3L1 preadipocytes of 25 µM. Moreover, the “TNFα levels in adipose tissue” value with TNFα is recorded as “decreased”. In addition, the “SIRT1 levels in adipose tissue” value with SIRT1 is given as “increased”.
